In this test the test system is T1, TanRd.
T1 construct: recombinant secreted from Yarrowia lipolytica, codon-optimised, XPR2 signal peptide, His-tag; ORF 1719 bp, 572 aa, predicted native signal peptide 1-19
In words: gallate ester hydrolysis, gallic acid release. The format is biochemical, Rhodotorula diobovata. Conditions: kinetic assay conditions not stated. The text has this: gallate ester hydrolysis, gallic acid release on TanRd
Turning to `COC(=O)c1cc(O)c(O)c(O)c1` [MG, methyl gallate], the Km came to 2310 µM.

Consider `O=C(O[C@@H]1Cc2c(O)cc(O)cc2O[C@@H]1c1ccc(O)c(O)c1)c1cc(O)c(O)c(O)c1` [ECG, epicatechin gallate], for which the Km turned out to be 1650 µM.

For `O=C(O[C@H]1Cc2c(O)cc(O)cc2O[C@@H]1c1ccc(O)c(O)c1)c1cc(O)c(O)c(O)c1` [CG, catechin gallate], the Km amounted to 1670 µM.

With `CCCOC(=O)c1cc(O)c(O)c(O)c1` [PG, propyl gallate], the Km came to 1490 µM.

On to `O=C(O[C@@H]1Cc2c(O)cc(O)cc2O[C@@H]1c1cc(O)c(O)c(O)c1)c1cc(O)c(O)c(O)c1` [EGCG, epigallocatechin gallate], for which the Km was 2190 µM.

What is called Km is the substrate concentration at which the rate is half of its maximum.

The values above are taken from publication PMC7692551, “Characterization of a Robust and pH-Stable Tannase from Mangrove-Derived Yeast Rhodosporidium diobovatum Q95” (Marine Drugs, 2020).
